Three molecules from US20230265151A1, “GIP/GLP1 CO-AGONIST COMPOUNDS” (priority 2020, published 2023) can be followed below.

Like-named read-outs stand apart in the source and are kept apart here. Where only a bound is given, the exact number is not on record here.

The target of one experiment is T1, hGCGR (Homo sapiens, UniProt P47871).
T1 construct: expressed in transfected cells
As to the kind of experiment: Functional cAMP formation (HTRF) in HEK-293 clonal cells expressing hGCGR, 0.1% bovine casein, without or with 1.0% human serum albumin. The format is cell-based. The method, boiled down:
(§1)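 Readings of the HTRF 665/620 nm ratio, which falls as cAMP rises, were converted to nM cAMP using a standard curve after 30 min peptide exposure at 37° C.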
(In general: cAMP levels reflect the balance of adenylyl cyclase and phosphodiesterase activity.)

Experiment [1] concerns the target T2, human GIP receptor (hGIPR) (Homo sapiens, UniProt P48546).
T2 construct: expressed in transfected cells; crude membranes
T2 sequence (P48546 22-466): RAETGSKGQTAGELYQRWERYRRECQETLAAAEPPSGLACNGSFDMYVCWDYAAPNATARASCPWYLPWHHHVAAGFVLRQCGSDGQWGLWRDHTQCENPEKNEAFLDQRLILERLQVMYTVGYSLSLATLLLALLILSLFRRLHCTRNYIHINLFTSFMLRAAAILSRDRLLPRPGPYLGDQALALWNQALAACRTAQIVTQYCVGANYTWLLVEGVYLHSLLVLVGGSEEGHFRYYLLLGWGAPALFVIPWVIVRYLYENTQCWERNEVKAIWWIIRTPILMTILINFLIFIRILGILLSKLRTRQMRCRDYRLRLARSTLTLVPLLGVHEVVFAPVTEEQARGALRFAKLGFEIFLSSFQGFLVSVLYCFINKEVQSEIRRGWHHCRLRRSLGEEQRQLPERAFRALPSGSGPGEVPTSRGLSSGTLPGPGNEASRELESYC
As to the kind of experiment: [125I]-GIP binding, SPA with membranes of CHO cells expressing hGIPR.

The target in another experiment is hGLP-1R (Homo sapiens, UniProt P43220). As to the kind of experiment: Functional cAMP formation (HTRF) in HEK-293 clonal cells expressing hGLP-1R, 0.1% bovine casein, without or with 1.0% human serum albumin. The format is cell-based. Also noted: expressed in transfected cells. The conditions noted are these: for Emax: percent of maximal response to GLP-1(7-36)NH2; for EC50: geometric mean. The method, boiled down: as §1
Sequence of hGLP-1R (P43220 24-463): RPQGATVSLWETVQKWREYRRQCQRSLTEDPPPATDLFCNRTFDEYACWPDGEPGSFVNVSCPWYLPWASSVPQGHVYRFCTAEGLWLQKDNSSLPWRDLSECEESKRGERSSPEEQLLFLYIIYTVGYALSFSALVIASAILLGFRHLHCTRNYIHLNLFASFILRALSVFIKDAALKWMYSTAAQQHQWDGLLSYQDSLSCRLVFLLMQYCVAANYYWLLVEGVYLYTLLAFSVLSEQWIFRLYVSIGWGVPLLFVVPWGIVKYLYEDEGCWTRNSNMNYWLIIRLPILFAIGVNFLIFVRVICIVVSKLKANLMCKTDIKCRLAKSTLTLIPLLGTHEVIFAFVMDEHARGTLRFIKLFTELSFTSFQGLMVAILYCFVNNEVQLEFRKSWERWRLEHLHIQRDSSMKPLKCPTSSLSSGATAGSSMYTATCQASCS

The target of experiment [2] is T3, human GLP-1 receptor (hGLP-1R) (Homo sapiens, UniProt P43220).
T3 construct: expressed in transfected cells; crude membranes
T3 sequence (P43220 24-463): as above
Briefly: [125I]-GLP-1 binding, SPA with membranes of HEK293 cells expressing hGLP-1R.

For the next experiment, the target named is T4, hGIPR (Homo sapiens, UniProt P48546).
T4 construct: expressed in transfected cells
T4 sequence (P48546 22-466): T2 sequence (P48546 22-466)
As to the kind of experiment: Functional cAMP formation (HTRF) in HEK-293 clonal cells expressing hGIPR, 0.1% bovine casein, without or with 1.0% human serum albumin. The format is cell-based. The conditions noted are these: for EC50: geometric mean; for Emax: read-out: hGIPR Emax, % ± SEM. The procedure, abridged:
as §1

The mark [3] stands for this setting: human GIPR, geometric mean (SEM, n), read-out: Binding Affinity Ki, nM (SEM, n) hGIPR.
The mark [4] stands for this setting: human GLP-1R, geometric mean (SEM, n), read-out: Binding Affinity Ki, nM (SEM, n) hGLP-1R.

T1 sequence (P47871 26-477): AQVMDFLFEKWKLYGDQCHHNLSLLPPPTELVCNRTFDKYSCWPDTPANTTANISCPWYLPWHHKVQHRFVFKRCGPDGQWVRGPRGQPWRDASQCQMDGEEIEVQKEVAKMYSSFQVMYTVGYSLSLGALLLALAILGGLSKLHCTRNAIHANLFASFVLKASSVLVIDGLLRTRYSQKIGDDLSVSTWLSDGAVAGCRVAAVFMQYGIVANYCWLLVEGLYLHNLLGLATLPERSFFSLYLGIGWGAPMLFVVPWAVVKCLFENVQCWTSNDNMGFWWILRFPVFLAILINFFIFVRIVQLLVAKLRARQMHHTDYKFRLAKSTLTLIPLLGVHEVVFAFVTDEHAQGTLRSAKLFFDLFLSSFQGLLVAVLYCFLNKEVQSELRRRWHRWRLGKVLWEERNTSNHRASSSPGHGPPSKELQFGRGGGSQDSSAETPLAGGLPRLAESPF

In general, EC50 refers to the concentration at which the effect is half-maximal. For orientation: Ki means the dissociation constant of the complex between target and ligand, obtained from inhibition or displacement. For orientation: Emax means the greatest response seen or fitted, relative to the assay's reference. As for `CC[C@H](C)[C@H](NC(=O)[C@H](CC(C)C)NC(=O)[C@](C)(Cc1ccc(O)cc1)NC(=O)[C@H](CCCCNC(=O)CCOCCOCCOCCNC(=O)CC[C@H](NC(=O)CCCCCCCCCOc1ccc(C(=O)O)cc1)C(=O)O)NC(=O)[C@@H](NC(=O)[C@H](Cc1ccccc1)NC(=O)[C@H](CCCN)NC(=O)C(C)(C)NC(=O)[C@H](CCC(N)=O)NC(=O)[C@H](C)NC(=O)[C@H](CCC(N)=O)NC(=O)[C@H](CCCN)NC(=O)[C@H](CC(=O)O)NC(=O)[C@H](CC(C)C)NC(=O)[C@](C)(CC(C)C)NC(=O)[C@@H](NC(=O)C(C)(C)NC(=O)[C@H](Cc1ccncc1)NC(=O)[C@H](CC(=O)O)NC(=O)[C@H](CO)NC(=O)[C@@H](NC(=O)[C@](C)(Cc1ccccc1F)NC(=O)[C@@H](NC(=O)CNC(=O)[C@H](CCC(=O)O)NC(=O)C(C)(C)NC(=O)[C@@H](N)Cc1ccc(O)cc1)[C@@H](C)O)[C@@H](C)O)[C@@H](C)CC)[C@@H](C)CC)C(=O)N[C@@H](CCCCNC(=O)CCOCCOCCOCCNC(=O)CC[C@H](NC(=O)CCCCCCCCCOc1ccc(C(=O)O)cc1)C(=O)O)C(=O)NCC(=O)NCC(=O)N1CCC[C@H]1C(=O)N[C@@H](CO)C(=O)N[C@@H](CO)C(=O)NCC(=O)N[C@@H](C)C(=O)N1CCC[C@H]1C(=O)N1CCC[C@H]1C(=O)N1CCC[C@H]1C(=O)N[C@@H](CO)C(N)=O` [Example 462], the EC50 is over 9950 nM at hGCGR (hGCGR EC50, nM (SEM, n), cAMP, 37° C., 0.1% bovine casein (no human serum albumin), geometric mean); over 9950 nM at hGCGR (hGCGR EC50, nM (SEM, n), cAMP, 37° C., 0.1% bovine casein and 1.0% human serum albumin, geometric mean (SEM, n)); 0.189 nM on hGLP-1R (hGLP-1R EC50, nM (SEM, n), cAMP, 37° C., 0.1% bovine casein (no human serum albumin)); 0.0128 nM on hGIPR (hGIPR EC50, nM (SEM, n), cAMP, 37° C., 0.1% bovine casein (no human serum albumin)). Further, the inhibition constant Ki was 0.0102 nM in experiment [1] and 0.125 nM in experiment [2]. Also, the Emax on hGLP-1R (HEK293, read-out: hGLP-1R Emax, % ± SEM, cAMP, 37° C., 0.1% bovine casein, arithmetic mean) worked out at 113%.
Take `CC[C@H](C)[C@H](NC(=O)[C@H](CC(C)C)NC(=O)[C@](C)(Cc1ccc(O)cc1)NC(=O)[C@H](CCCCNC(=O)CC[C@H](NC(=O)COCCOCCNC(=O)COCCOCCNC(=O)CC[C@H](NC(=O)CCCCCCCCCCCCC(=O)O)C(=O)O)C(=O)O)NC(=O)[C@@H](NC(=O)[C@H](Cc1ccccc1)NC(=O)[C@H](CCCN)NC(=O)C(C)(C)NC(=O)[C@H](CCC(N)=O)NC(=O)[C@H](C)NC(=O)[C@H](CCC(N)=O)NC(=O)[C@H](CCCN)NC(=O)[C@H](CC(=O)O)NC(=O)[C@H](CC(C)C)NC(=O)[C@](C)(CC(C)C)NC(=O)[C@@H](NC(=O)C(C)(C)NC(=O)[C@H](Cc1ccncc1)NC(=O)[C@H](CC(=O)O)NC(=O)[C@H](CO)NC(=O)[C@@H](NC(=O)[C@](C)(Cc1ccccc1F)NC(=O)[C@@H](NC(=O)CNC(=O)[C@H](CCC(=O)O)NC(=O)C(C)(C)NC(=O)[C@@H](N)Cc1ccc(O)cc1)[C@@H](C)O)[C@@H](C)O)[C@@H](C)CC)[C@@H](C)CC)C(=O)N[C@@H](CCCCNC(=O)CC[C@H](NC(=O)COCCOCCNC(=O)COCCOCCNC(=O)CC[C@H](NC(=O)CCCCCCCCCCCCC(=O)O)C(=O)O)C(=O)O)C(=O)NCC(=O)NCC(=O)N1CCC[C@H]1C(=O)N[C@@H](CO)C(=O)N[C@@H](CO)C(=O)NCC(=O)N[C@@H](C)C(=O)N1CCC[C@H]1C(=O)N1CCC[C@H]1C(=O)N1CCC[C@H]1C(=O)N[C@@H](CO)C(N)=O` [Example 482]: the EC50 on hGCGR (cAMP, 37° C., 0.1% bovine casein (no human serum albumin), geometric mean, read-out: hGCGR EC50, nM (SEM, n)) is over 9950 nM; at hGCGR (cAMP, 37° C., 0.1% bovine casein and 1.0% human serum albumin, geometric mean (SEM, n), read-out: hGCGR EC50, nM (SEM, n)), over 9950 nM; at hGLP-1R (cAMP, 37° C., 0.1% bovine casein (no human serum albumin), read-out: hGLP-1R EC50, nM (SEM, n)), 0.169 nM; at hGIPR (cAMP, 37° C., 0.1% bovine casein (no human serum albumin), read-out: hGIPR EC50, nM (SEM, n)), 0.0158 nM. The Ki in experiment [1] (setting [3]) amounted to 0.0277 nM; in experiment [2] (setting [4]) it was 0.254 nM. Moreover, the Emax at hGLP-1R (HEK293, cAMP, 37° C., 0.1% bovine casein and 1.0% human serum albumin, read-out: hGLP-1R Emax, % ± SEM) was 110%; on hGLP-1R (HEK293, cAMP, 37° C., 0.1% bovine casein, arithmetic mean, read-out: hGLP-1R Emax, % ± SEM), 118%.
Regarding `CC[C@H](C)[C@H](NC(=O)[C@H](CC(C)C)NC(=O)[C@](C)(Cc1ccc(O)cc1)NC(=O)[C@@H](CCC(=O)O)NC(=O)[C@@H](NC(=O)[C@H](Cc1ccccc1)NC(=O)[C@H](CCC(=O)O)NC(=O)C(C)(C)NC(=O)[C@H](CCC(N)=O)NC(=O)[C@H](C)NC(=O)[C@H](CCCCNC(=O)COCCOCCNC(=O)COCCOCCNC(=O)CC[C@H](NC(=O)CCCc1ccc(I)cc1)C(=O)O)NC(=O)[C@H](CCCN)NC(=O)[C@H](CC(=O)O)NC(=O)[C@H](CC(C)C)NC(=O)[C@](C)(CC(C)C)NC(=O)[C@@H](NC(=O)[C@H](CO)NC(=O)[C@H](Cc1ccncc1)NC(=O)[C@H](CC(=O)O)NC(=O)[C@H](CO)NC(=O)[C@@H](NC(=O)[C@](C)(Cc1ccccc1F)NC(=O)[C@@H](NC(=O)CNC(=O)[C@H](CCC(=O)O)NC(=O)C(C)(C)NC(=O)[C@@H](N)Cc1ccc(O)cc1)[C@@H](C)O)[C@@H](C)O)[C@@H](C)CC)[C@@H](C)CC)C(=O)N[C@@H](CCC(=O)O)C(=O)NCC(=O)NCC(=O)N[C@@H](CCCCNC(=O)COCCOCCNC(=O)COCCOCCNC(=O)CC[C@H](NC(=O)CCCc1ccc(I)cc1)C(=O)O)C(=O)N[C@@H](CO)C(=O)N[C@@H](CO)C(=O)NCC(=O)N[C@@H](C)C(=O)N1CCC[C@H]1C(=O)N1CCC[C@H]1C(=O)N1CCC[C@H]1C(=O)N[C@@H](CO)C(N)=O` [Example 3], the EC50 is over 9950 nM on hGCGR (0.1% bovine casein and 1.0% human serum albumin, 37° C., geometric mean, read-out: hGCGR EC50, nM (SEM, n)); over 9950 nM at hGCGR (cAMP, incubated at 37° C., 0.1% bovine casein (no human serum albumin), geometric mean, read-out: hGCGR EC50, nM (SEM, n)); 1.05 nM at hGLP-1R (0.1% bovine casein and 1.0% human serum albumin, 37° C., read-out: hGLP-1R EC50, nM (SEM, n)); 0.223 nM on hGLP-1R (cAMP, incubated at 37° C., 0.1% bovine casein (no human serum albumin), read-out: hGLP-1R EC50, nM (SEM, n)); 0.0971 nM at hGIPR (0.1% bovine casein and 1.0% human serum albumin, 37° C., read-out: hGIPR EC50, nM (SEM, n)); 0.0133 nM at hGIPR (cAMP, incubated at 37° C., 0.1% bovine casein (no human serum albumin), read-out: hGIPR EC50, nM (SEM, n)). The Ki in experiment [1] (setting [3]) turned out to be 0.0629 nM; in experiment [2] (setting [4]) it was 0.471 nM. Moreover, the Emax at hGIPR (HEK293, 0.1% bovine casein and 1.0% human serum albumin, 37° C., percent of maximal response to GIP(1-42)NH2) came to 80%; on hGIPR (HEK293, percent of maximal response to GIP(1-42)NH2, 37° C., 0.1% bovine casein, arithmetic mean) it was 95.9 ± 2.95%.
